{"source": "patent US6117857A", "about": "“Pharmaceutical composition” (priority 1995, dated 2000)", "key": {"[1]": {"details": "cited from earlier work"}, "[2]": {"system": "recurrent herpes simplex virus infections", "details": "cited from earlier work; for Healing time: topical treatment, recurrent cutaneous virus diseases"}, "[3]": {"details": "topical, 3% formulation; cited from earlier work"}, "[4]": {"system": "reverse transcriptase of HIV", "details": "cited from earlier work"}, "Kaposi's sarcoma": {"system": "Kaposi's sarcoma", "details": "intravenous treatment; cited from earlier work"}, "HIV": {"system": "HIV", "details": "in vitro; cited from earlier work"}, "[5]": {"test": "Test 5. Cytotoxicity of liposomal foscarnet (PBMC growth)", "type": "cell-based", "details": "human PBMC, cell counter, read-out: Cytotoxicity, CIC50 (cell growth inhibitory concentration)", "protocol": "Liposomes were prepared according to Formulation 7 above and the cytotoxic effects thereof tested using human peripheral blood mononuclear cells (PBMC) as previously described (method according to Palmer, S., et al., Aids Research and Human Retroviruses, Vol.11, No. 10, 1995 with some modifications). The PBMCs were incubated with the drugs in medium for 72 h and cell growth was measured in an automatic cell counter. Above 10 000 μM the liposomes themselves interfered with the cell counting."}, "[6]": {"test": "Systemic uptake of topically applied foscarnet (previous research)", "type": "in vivo", "details": "about 100 mg of 5% foscarnet cream (about 5 mg foscarnet)"}, "[7]": {"details": "phospholipid liposomes; WO 89/05152; cited from earlier work"}, "human herpesvirus": {"system": "human herpesvirus", "details": "in vitro; cited from earlier work"}, "[8]": {"system": "herpes simplex virus type 1 (strain R39)", "test": "Test 4. Antiviral effect of liposomal foscarnet on HSV-1 (HL cells, ELISA)", "type": "cell-based, HSV-1; human lung fibroblast (HL) cells", "details": "Human alphaherpesvirus 1, 24 h, read-out: Antiviral effect on HSV-1, IC50", "protocol": "Liposomes were constructed according to Formulations 7 and 8. The liposomes were not purified from the surrounding foscarnet-containing medium and antiviral effects by the liposomes might therefore be underestimated by cell culture assays. Antiviral effects of liposomes against herpes simplex virus type 1 were tested using previously published methods (Abele, G., et al., Antiviral Chemistry & Chemotherapy (1991) 2(3), 163-169) with some modifications. Confluent human lung fibroblast (HL) cells were infected with HSV-1 (strain R39) for one hour at 37° C. The virus inoculum was removed, and various dilutions of foscarnet-loaded liposomes, empty liposomes or foscarnet in medium were added. After 24 h the cells were lysed by addition of Triton X100, subjected to a freeze-thaw cycle, and the cell lysates tested for viral replication in an HSV-1-specific ELISA. The results obtained at a virus dilution of 1:500 and an incubation time of 24 h are stated in the following Table 4."}}, "note": "pIC50: −log10 of the molar value. Counter-ions that a name gives are not always drawn.", "data": [{"smiles": "Nc1nc2c(ncn2COCCO)c(=O)[nH]1", "note": "[acyclovir, 9-[(2-hydroxyethoxy)methyl]guanine]", "values": [{"measurement": "Adverse effects of therapy", "setting": "[1]; human, in vivo", "result": "very few adverse effects"}, {"measurement": "Healing time", "setting": "[2]", "result": "only reduced by approximately one day"}]}, {"smiles": "Nc1nc2c(ncn2CCC(CO)CO)c(=O)[nH]1", "note": "[penciclovir, 9-(4-hydroxy-3-hydroxymethylbut-1-yl)-guanine]", "values": [{"measurement": "Healing time", "setting": "[2]", "result": "only reduced by approximately one day"}]}, {"smiles": "CC(C)[C@H](N)C(=O)OCCOCn1cnc2c(=O)[nH]c(N)nc21", "note": "[valaciclovir, L-valyl acyclovir]", "values": [{"measurement": "Healing time", "setting": "[2]", "result": "only reduced by approximately one day"}]}, {"smiles": "CC(=O)OCC(CCn1cnc2cnc(N)nc21)COC(C)=O", "note": "[famciclovir]", "values": [{"measurement": "Healing time", "setting": "[2]", "result": "only reduced by approximately one day"}]}, {"smiles": "O=C(O)P(=O)(O)O", "note": "[foscarnet, trisodium salt of phosphonoformic acid, hexahydrate]", "values": [{"measurement": "Side-effect of intravenous treatment", "setting": "[1]; intravenous, CMV retinitis and acyclovir-resistant HSV in AIDS patients", "result": "renal function impairment"}, {"measurement": "Healing time of lesions", "setting": "[2]; topical, conventional cream, recurrent HSV, immunocompetent patients", "result": "shortened by approximately one day"}, {"measurement": "Irritation of mucous membranes or the skin", "setting": "[3]", "result": "known to cause irritation of mucous membranes or the skin"}, {"measurement": "Inhibition of reverse transcriptase of HIV (in words)", "setting": "[4]", "result": "inhibits the reverse transcriptase of HIV"}, {"measurement": "Response of Kaposi's sarcoma patients", "setting": "Kaposi's sarcoma", "result": "some patients have responded"}, {"measurement": "Antiviral activity against replication of HIV (in words)", "setting": "HIV", "result": "shows antiviral activity against the replication of HIV in vitro"}, {"measurement": "CC50 at 72 h", "setting": "[5]", "result": 2460, "unit": "µM"}, {"measurement": "Amount entering the systemic circulation per application", "setting": "[6]", "result": "≤ 0.25", "unit": "mg per application"}, {"measurement": "Intracellular antiviral activity in liposome-encapsulated form", "setting": "[7]", "result": "several-fold higher intracellular antiviral activity"}, {"measurement": "Activity against human herpesvirus (in words)", "setting": "human herpesvirus", "result": "proven activity against all human herpesvirus in vitro"}, {"measurement": "pIC50", "setting": "[8]", "result": 3.82}]}]}
